Columns and labels:
[1] = test system: SAS; experiment: cells; format: functional, cell-based; settings: Homo sapiens;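 note: growth inhibition of SAS cells, read out with a cell viability assay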
Description: SANGER: Inhibition of human SAS cell growth in a cell viability assay.

[2] = test system: NCI-H524; experiment: cells; format: functional, cell-based, Homo sapiens; settings: Homo sapiens, NCI-H524;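 note: growth inhibition of human NCI-H524 cells, read out through a cell viability assay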
Description: SANGER: Inhibition of human NCI-H524 cell growth in a cell viability assay.

[3] = test system: OE33; experiment: cells; format: functional, cell-based; settings: Homo sapiens;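 note: growth inhibition of human OE33 cells, measured by a cell viability assay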
Description: SANGER: Inhibition of human OE33 cell growth in a cell viability assay.

[4] = test system: HO-1-N-1; experiment: cells; format: functional, cell-based; settings: Homo sapiens;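 note: growth inhibition of human HO-1-N-1 cells, read out with a cell viability assay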
Description: SANGER: Inhibition of human HO-1-N-1 cell growth in a cell viability assay.

[5] = test system: KOSC-2; experiment: cells; format: functional, cell-based; settings: Homo sapiens;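 note: growth inhibition of KOSC-2 cells, read out by a cell viability assay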
Description: SANGER: Inhibition of human KOSC-2 cell growth in a cell viability assay.

[6] = test system: RVH-421; experiment: cells; format: functional, cell-based; settings: Homo sapiens
Description: SANGER: Inhibition of human RVH-421 cell growth in a cell viability assay.

[7] = test system: SU-DHL-1; experiment: SANGER: Inhibition of human SU-DHL-1 cell growth in a cell viability assay.; format: functional, cell-based; settings: Homo sapiens, SU-DHL-1
[8] = test system: EB2; experiment: cells; format: functional, cell-based, Homo sapiens; settings: Homo sapiens, EB2;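 note: growth inhibition of EB2 cells, read out with a cell viability assay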
Description: SANGER: Inhibition of human EB2 cell growth in a cell viability assay.

[9] = test system: NALM-6; experiment: cells; format: functional, cell-based, Homo sapiens; settings: Homo sapiens, NALM-6;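 note: growth inhibition of NALM-6 cells, read out with a cell viability assay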
Description: SANGER: Inhibition of human NALM-6 cell growth in a cell viability assay.

[10] = test system: NCI-H2196; experiment: cells; format: functional, cell-based, Homo sapiens; settings: Homo sapiens, NCI-H2196; read-out: IC50;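 note: cell viability assay used as the readout of growth inhibition in NCI-H2196 cells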
Description: SANGER: Inhibition of human NCI-H2196 cell growth in a cell viability assay.

[11] = test system: NCI-H292; experiment: cells; format: functional, cell-based; settings: Homo sapiens;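 note: growth inhibition of NCI-H292 cells, read out with a cell viability assay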
Description: SANGER: Inhibition of human NCI-H292 cell growth in a cell viability assay.

[12] = test system: HC-1; experiment: cells; format: functional, cell-based, Homo sapiens; settings: Homo sapiens, HC-1;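 note: growth inhibition of HC-1 cells measured by a cell viability assay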
Description: SANGER: Inhibition of human HC-1 cell growth in a cell viability assay.

[13] = test system: BFTC-905; experiment: cells; format: functional, cell-based; settings: Homo sapiens
Description: SANGER: Inhibition of human BFTC-905 cell growth in a cell viability assay.

[14] = test system: Calu-3; experiment: cells; format: functional, cell-based; settings: Homo sapiens;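 note: growth inhibition of human Calu-3 cells, determined with a cell viability assay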
Description: SANGER: Inhibition of human Calu-3 cell growth in a cell viability assay.

[15] = test system: HCC1954; experiment: cells; format: functional, cell-based; settings: Homo sapiens;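 note: growth inhibition of human HCC1954 cells, read out with a cell viability assay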
Description: SANGER: Inhibition of human HCC1954 cell growth in a cell viability assay.

[16] = test system: GDM-1; experiment: cells; format: functional, cell-based, Homo sapiens; settings: Homo sapiens, GDM-1; read-out: IC50;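 note: cell viability readout used to measure growth inhibition of human GDM-1 cells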
Description: SANGER: Inhibition of human GDM-1 cell growth in a cell viability assay.

[17] = test system: NCI-H661; experiment: cells; format: functional, cell-based; settings: Homo sapiens;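 note: cell viability assay read-out, IC50 being the concentration that inhibits growth of the cells by half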
Description: SANGER: Inhibition of human NCI-H661 cell growth in a cell viability assay.

[18] = test system: KYSE-520 cell line; experiment: cells; format: functional, cell-based; settings: Homo sapiens;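 note: growth inhibition of human KYSE-520 cells, read out with a viability assay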
Description: SANGER: Inhibition of human KYSE-520 cell growth in a cell viability assay.

[19] = test system: HOS; experiment: cells; format: functional, cell-based; settings: Homo sapiens;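 note: growth inhibition of human HOS cells, read out with a cell viability assay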
Description: SANGER: Inhibition of human HOS cell growth in a cell viability assay.

[20] = test system: HCC1599; experiment: cells; format: functional, cell-based, Homo sapiens; settings: Homo sapiens, HCC1599;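 note: growth inhibition of HCC1599 cells, read out in a cell viability assay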
Description: SANGER: Inhibition of human HCC1599 cell growth in a cell viability assay.

[21] = test system: A204; experiment: cells; format: functional, cell-based; settings: Homo sapiens;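 note: growth inhibition of human A204 cells, read out with a cell viability assay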
Description: SANGER: Inhibition of human A204 cell growth in a cell viability assay.

[22] = test system: LK-2; experiment: cells; format: functional, cell-based; settings: Homo sapiens;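 note: growth inhibition of LK-2 cells, read out with a viability assay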
Description: SANGER: Inhibition of human LK-2 cell growth in a cell viability assay.

[23] = test system: VM-CUB-1; experiment: cells; format: functional, cell-based; settings: Homo sapiens;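 note: cell viability assay measuring growth inhibition of the human VM-CUB-1 cell line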
Description: SANGER: Inhibition of human VM-CUB-1 cell growth in a cell viability assay.

[24] = test system: PF-382; experiment: cells; format: functional, cell-based, Homo sapiens; settings: Homo sapiens, PF-382
Description: SANGER: Inhibition of human PF-382 cell growth in a cell viability assay.

[25] = test system: HCC1419; experiment: cells; format: functional, cell-based; settings: Homo sapiens;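 note: growth inhibition of human HCC1419 cells, read out as cell viability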
Description: SANGER: Inhibition of human HCC1419 cell growth in a cell viability assay.

[26] = test system: Capan-2; experiment: cells; format: functional, cell-based; settings: Homo sapiens;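 note: Capan-2 cell growth inhibition, read out with a viability assay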
Description: SANGER: Inhibition of human Capan-2 cell growth in a cell viability assay.

[27] = test system: SW1990; experiment: cells; format: functional, cell-based; settings: Homo sapiens
Description: SANGER: Inhibition of human SW1990 cell growth in a cell viability assay.

[28] = test system: T84; experiment: cells; format: functional, cell-based; settings: Homo sapiens;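 note: growth inhibition measured with a cell viability readout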
Description: SANGER: Inhibition of human T84 cell growth in a cell viability assay.

[29] = test system: UACC-62; experiment: cells; format: functional, cell-based; settings: Homo sapiens;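 note: growth inhibition of human UACC-62 cells, read out by a cell viability assay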
Description: SANGER: Inhibition of human UACC-62 cell growth in a cell viability assay.

[30] = test system: 5637; experiment: cells; format: functional, cell-based; settings: Homo sapiens
Description: SANGER: Inhibition of human 5637 cell growth in a cell viability assay.

[31] = test system: BCPAP; experiment: cells; format: functional, cell-based; settings: Homo sapiens;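 note: growth inhibition of BCPAP cells, read out in a cell viability assay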
Description: SANGER: Inhibition of human BCPAP cell growth in a cell viability assay.

[32] = test system: HSC-4; experiment: cells; format: functional, cell-based; settings: Homo sapiens;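 note: growth inhibition of human HSC-4 cells, read out with a cell viability assay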
Description: SANGER: Inhibition of human HSC-4 cell growth in a cell viability assay.

[33] = test system: SCC-9; experiment: cells; format: functional, cell-based; settings: Homo sapiens;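 note: Read-out is a cell viability assay, with values giving inhibition of cell growth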
Description: SANGER: Inhibition of human SCC-9 cell growth in a cell viability assay.

[34] = test system: A2780; experiment: cells; format: functional, cell-based; settings: Homo sapiens;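 note: growth inhibition of A2780 cells, read out with a cell viability assay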
Description: SANGER: Inhibition of human A2780 cell growth in a cell viability assay.

[35] = test system: NCI-H358; experiment: cells; format: functional, cell-based; settings: Homo sapiens;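 note: growth inhibition of NCI-H358 human cells, read out with a cell viability assay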
Description: SANGER: Inhibition of human NCI-H358 cell growth in a cell viability assay.

[36] = test system: 769-P; experiment: cells; format: functional, cell-based; settings: Homo sapiens
Description: SANGER: Inhibition of human 769-P cell growth in a cell viability assay.

[37] = test system: J82; experiment: cells; format: functional, cell-based; settings: Homo sapiens;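 note: growth inhibition of J82 cells, read out with a cell viability assay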
Description: SANGER: Inhibition of human J82 cell growth in a cell viability assay.

[38] = test system: NCI-H28; experiment: cells; format: functional, cell-based; settings: Homo sapiens;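 note: growth inhibition of human NCI-H28 cells, read out as cell viability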
Description: SANGER: Inhibition of human NCI-H28 cell growth in a cell viability assay.

[39] = test system: SW837; experiment: cells; format: functional, cell-based; settings: Homo sapiens;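 note: growth inhibition of SW837 cells, determined with a cell viability assay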
Description: SANGER: Inhibition of human SW837 cell growth in a cell viability assay.

[40] = test system: NCI-H1793; experiment: cells; format: functional, cell-based; settings: Homo sapiens;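 note: cell growth inhibition, read out by a cell viability assay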
Description: SANGER: Inhibition of human NCI-H1793 cell growth in a cell viability assay.

[41] = test system: HCT-116; experiment: cells; format: functional, cell-based; settings: Homo sapiens
Description: SANGER: Inhibition of human HCT-116 cell growth in a cell viability assay.

[42] = test system: SN12C; experiment: cells; format: functional, cell-based; settings: Homo sapiens;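 note: growth inhibition of human SN12C cells, measured by a cell viability assay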
Description: SANGER: Inhibition of human SN12C cell growth in a cell viability assay.

[43] = test system: ABC-1; experiment: cells; format: functional, cell-based; settings: Homo sapiens;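 note: growth inhibition of human ABC-1 cells, read out by a cell viability assay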
Description: SANGER: Inhibition of human ABC-1 cell growth in a cell viability assay.

[44] = test system: NCI-H1882; experiment: cells; format: functional, cell-based, Homo sapiens; settings: Homo sapiens, NCI-H1882;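 note: growth inhibition of the cell line, determined with a viability assay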
Description: SANGER: Inhibition of human NCI-H1882 cell growth in a cell viability assay.

[45] = test system: A-375; experiment: cells; format: functional, cell-based; settings: Homo sapiens;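 note: growth inhibition of A375 cells, read out with a cell viability assay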
Description: SANGER: Inhibition of human A375 cell growth in a cell viability assay.

[46] = test system: TCC-SUP; experiment: cells; format: functional, cell-based; settings: Homo sapiens;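 note: growth inhibition of TCC-SUP cells, read out with a cell viability assay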
Description: SANGER: Inhibition of human TCCSUP cell growth in a cell viability assay.

[47] = test system: SCLC-21H; experiment: cells; format: functional, cell-based, Homo sapiens; settings: Homo sapiens, SCLC-21H;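 note: growth inhibition of cultured human SCLC-21H cells, read out with a cell viability assay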
Description: SANGER: Inhibition of human SCLC-21H cell growth in a cell viability assay.

[48] = test system: NCI-H1792; experiment: cells; format: functional, cell-based; settings: Homo sapiens;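 note: growth inhibition of human NCI-H1792 cells, read out as cell viability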
Description: SANGER: Inhibition of human NCI-H1792 cell growth in a cell viability assay.

[49] = test system: NCI-H460; experiment: cells; format: functional, cell-based; settings: Homo sapiens;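 note: cell viability assay scoring growth inhibition of human NCI-H460 cells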
Description: SANGER: Inhibition of human NCI-H460 cell growth in a cell viability assay.

[50] = test system: KYSE-150 cell line; experiment: cells; format: functional, cell-based; settings: Homo sapiens;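 note: growth inhibition of human KYSE-150 cells, read out with a cell viability assay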
Description: SANGER: Inhibition of human KYSE-150 cell growth in a cell viability assay.

[51] = test system: MHH-ES-1; experiment: cells; format: functional, cell-based; settings: Homo sapiens
Description: SANGER: Inhibition of human MHH-ES-1 cell growth in a cell viability assay.

[52] = test system: CAL-27; experiment: cells; format: functional, cell-based; settings: Homo sapiens;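 note: Viability-based readout, IC50 reflecting inhibition of CAL-27 cell growth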
Description: SANGER: Inhibition of human CAL-27 cell growth in a cell viability assay.

[53] = test system: HMV-2 cell line; experiment: cells; format: functional, cell-based; settings: Homo sapiens;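 note: growth inhibition of HMV-II cells, read out with a cell viability assay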
Description: SANGER: Inhibition of human HMV-II cell growth in a cell viability assay.

[54] = test system: NCI-H522; experiment: cells; format: functional, cell-based; settings: Homo sapiens;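 note: cell viability assay measuring growth inhibition of human NCI-H522 cells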
Description: SANGER: Inhibition of human NCI-H522 cell growth in a cell viability assay.

[55] = test system: NCI-H1651; experiment: cells; format: functional, cell-based; settings: Homo sapiens;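 note: Read-out is a cell viability assay, with IC50 expressing inhibition of NCI-H1651 cell growth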
Description: SANGER: Inhibition of human NCI-H1651 cell growth in a cell viability assay.

[56] = test system: OVCAR-8; experiment: cells; format: functional, cell-based; settings: Homo sapiens;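 note: growth inhibition of human OVCAR-8 cells, read out by a cell viability assay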
Description: SANGER: Inhibition of human OVCAR-8 cell growth in a cell viability assay.

[57] = test system: SK-N-AS; experiment: cells; format: functional, cell-based; settings: Homo sapiens;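 note: growth inhibition of human SK-N-AS cells, measured with a cell viability assay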
Description: SANGER: Inhibition of human SK-N-AS cell growth in a cell viability assay.

[58] = test system: NCI-H2087; experiment: cells; format: functional, cell-based; settings: Homo sapiens;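 note: growth inhibition determined with a cell viability readout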
Description: SANGER: Inhibition of human NCI-H2087 cell growth in a cell viability assay.

COc1ccc(-c2cc3nccn3c(Nc3ncccc3C(N)=O)n2)cc1OC
IC50 [1]: > 8 µM | IC50 [2]: > 8 µM | IC50 [3]: > 8 µM | IC50 [4]: > 8 µM | IC50 [5]: > 8 µM | IC50 [6]: > 8 µM | IC50 [7]: > 8 µM | IC50 [8]: 0.837 µM | IC50 [9]: 0.417 µM | IC50 [10]: > 8 µM | IC50 [11]: > 8 µM | IC50 [12]: 0.754 µM | IC50 [13]: 2.29 µM | IC50 [14]: > 8 µM | IC50 [15]: > 8 µM | IC50 [16]: 0.683 µM | IC50 [17]: > 8 µM | IC50 [18]: > 8 µM | IC50 [19]: 3.32 µM | IC50 [20]: 2.69 µM | IC50 [21]: > 8 µM | IC50 [22]: > 8 µM | IC50 [23]: > 8 µM | IC50 [24]: 2.41 µM | IC50 [25]: > 8 µM | IC50 [26]: > 8 µM | IC50 [27]: > 8 µM | IC50 [28]: 3.23 µM | IC50 [29]: > 8 µM | IC50 [30]: > 8 µM | IC50 [31]: 3.17 µM | IC50 [32]: > 8 µM | IC50 [33]: > 8 µM | IC50 [34]: 1.53 µM | IC50 [35]: 0.689 µM | IC50 [36]: 0.98 µM | IC50 [37]: 1.51 µM | IC50 [38]: > 8 µM | IC50 [39]: 3.54 µM | IC50 [40]: > 8 µM | IC50 [41]: 3.98 µM | IC50 [42]: > 8 µM | IC50 [43]: > 8 µM | IC50 [44]: > 8 µM | IC50 [45]: 1.27 µM | IC50 [46]: > 8 µM | IC50 [47]: > 8 µM | IC50 [48]: > 8 µM | IC50 [49]: 2.46 µM | IC50 [50]: 6.05 µM | IC50 [51]: > 8 µM | IC50 [52]: 4.59 µM | IC50 [53]: 0.664 µM | IC50 [54]: > 8 µM | IC50 [55]: 4.15 µM | IC50 [56]: > 8 µM | IC50 [57]: > 8 µM | IC50 [58]: 2.79 µM

CCCCCCCCCCCC1=C(O)C(=O)C=C(O)C1=O [EMBELIN]
IC50 [1]: 16.8 µM | IC50 [2]: > 32 µM | IC50 [3]: 13.3 µM | IC50 [4]: 12.3 µM | IC50 [5]: > 32 µM | IC50 [6]: 11.5 µM | IC50 [7]: > 32 µM | IC50 [8]: 6.17 µM | IC50 [9]: 9.09 µM | IC50 [10]: > 32 µM | IC50 [11]: 29.4 µM | IC50 [12]: 5.4 µM | IC50 [13]: 5.03 µM | IC50 [14]: 8.45 µM | IC50 [15]: 11.3 µM | IC50 [16]: 28 µM | IC50 [17]: 19.2 µM | IC50 [18]: 18.5 µM | IC50 [19]: 15.3 µM | IC50 [20]: 9.04 µM | IC50 [21]: 17.4 µM | IC50 [22]: 18 µM | IC50 [23]: 10.8 µM | IC50 [24]: 6.17 µM | IC50 [25]: > 32 µM | IC50 [26]: 18.3 µM | IC50 [27]: 6.49 µM | IC50 [28]: 9.87 µM | IC50 [29]: 1.75 µM | IC50 [30]: 13.2 µM | IC50 [31]: 13.7 µM | IC50 [32]: 11.1 µM | IC50 [33]: > 32 µM | IC50 [34]: 13.2 µM | IC50 [35]: 11.1 µM | IC50 [36]: 8.47 µM | IC50 [37]: 11.8 µM | IC50 [38]: 26 µM | IC50 [39]: 18 µM | IC50 [40]: > 32 µM | IC50 [41]: 28.5 µM | IC50 [42]: 26.6 µM | IC50 [43]: > 32 µM | IC50 [44]: > 32 µM | IC50 [45]: 3.57 µM | IC50 [46]: 11.6 µM | IC50 [47]: > 32 µM | IC50 [48]: 23.1 µM | IC50 [49]: 6.09 µM | IC50 [50]: 12.1 µM | IC50 [51]: 15.8 µM | IC50 [52]: 13.1 µM | IC50 [53]: 4.61 µM | IC50 [54]: 17.7 µM | IC50 [55]: 5.98 µM | IC50 [56]: 11.3 µM | IC50 [57]: 13.8 µM | IC50 [58]: 5.45 µM
